From PMC8151276, “An Integrated Approach toward NanoBRET Tracers for Analysis of GPCR Ligand Engagement” (Molecules, 2021) come the findings set out here.

Assay [1] concerns the target T1, FZD9 (Homo sapiens, UniProt O00144).
T1 construct: purchased Promega (in-house HiBiT-GPCR construct library, NanoBRET)
T1 sequence (O00144 23-591): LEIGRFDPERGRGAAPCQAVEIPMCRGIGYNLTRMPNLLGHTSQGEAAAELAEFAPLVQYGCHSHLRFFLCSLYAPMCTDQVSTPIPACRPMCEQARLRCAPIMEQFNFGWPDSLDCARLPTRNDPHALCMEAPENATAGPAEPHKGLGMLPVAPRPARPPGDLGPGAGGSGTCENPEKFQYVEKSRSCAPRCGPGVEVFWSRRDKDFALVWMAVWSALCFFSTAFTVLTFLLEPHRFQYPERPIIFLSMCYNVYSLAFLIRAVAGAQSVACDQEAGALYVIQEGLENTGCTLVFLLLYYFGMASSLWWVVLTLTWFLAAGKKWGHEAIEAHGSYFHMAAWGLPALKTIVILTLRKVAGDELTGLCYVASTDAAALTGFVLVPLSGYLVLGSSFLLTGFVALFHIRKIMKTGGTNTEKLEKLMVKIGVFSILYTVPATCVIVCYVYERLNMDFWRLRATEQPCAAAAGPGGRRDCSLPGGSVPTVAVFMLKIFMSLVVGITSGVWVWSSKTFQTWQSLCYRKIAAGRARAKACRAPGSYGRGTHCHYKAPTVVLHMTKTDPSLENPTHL
The experiment in a line: NanoBRET screen HiBiT-FZD9 in HEK293. It is filed as binding. As for the experimental part: (§1) Each tracer candidate was screened across the entire library of HiBiT-GPCR constructs using NanoBRET as the detection modality. As depicted in Figure 4A, the specificity of interactions was evaluated through decrease in BRET due to competitive displacement of a bound tracer by excess parental compound. Each tracer was analyzed for binding to each HiBiT-GPCR fusion in the absence and in the presence of competing parental compound. Briefly, HEK293 cells were transfected with HiBiT-GPCR constructs diluted into promoterless DNA to reduce expression and maximize translocation to the cell surface. Each tracer candidate was then screened at concentrations of 1 μM and 0.1 μM across cells expressing these fusions. Cells were treated for 1.5 h with tracer either alone or in the presence of 20 μM competing parental compound (i.e., control). BRET was measured upon addition of purified LgBiT and subsequent complementation with HiBiT genetically fused to a GPCR. The specificity of interactions was assessed through a decrease in BRET signal due to competitive displacement of the bound tracer. To further gauge the robustness of these interactions, the fold response over the control (i.e., BRETtracer/BRETcontrol) was calculated. We chose a 1.5-fold response, which translates to ≥7-fold signal over noise as the minimal threshold required to score an interaction as positive. […]. Below we highlight the screening results obtained for our exemplary fluorescent tracers based on Clozapine, Amitriptyline and AZD1283.
(§2) HiBiT-GPCR DNA constructs were diluted in 10 mM Tris pH 8 to a final concentration of 0.01 μg/μL, arrayed in 96-well plates and stored at −20 °C. For transfection, HEK293 cells were suspended in Opti-MEM (without phenol red) supplemented with 2% fetal bovine serum (Seradigm) and 100 units/mL penicillin–streptomycin (Gibco) at a final concentration of 220,000 cells/mL and dispensed into white 96-well plates at 90 μL/well. Subsequent transfections and screens were carried using an Agilent Bravo Automated Liquid Handling Platform. First, the 96-well HiBiT DNA arrays were diluted 25-fold in Opti-MEM (without serum or phenol red) to a final concentration of 0.0004 μg/μL and 20 μL of the diluted DNAs were transferred into new 96-well plates. Next, promoterless carrier DNA (1 μg/μL) was diluted 25-fold (0.04 μg/μL) and then dispensed into the diluted arrays at 20 μL/well. Following brief mixing, Viafect transfection reagent (Promega) diluted 16-fold into Opti-MEM was dispensed into the plates at 40 μL/well. After mixing by pipetting, plates were incubated for 10 min on the pipetting station deck. The DNA-transfection reagent complexes were then added to plates containing cells. To facilitate the screen, 10 μL of DNA-transfection reagent complexes were added in duplicates to the top 4 and bottom 4 rows, resulting in two identical 48-well arrays per plate. Plates with transfected cells were incubated for 18–20 h at 37 °C/5% CO2. A screen of each tracer across the entire library using two different concentrations requires duplicate plates of transfected cells. Depending on the number of tracers being screened, transfections can be scaled up using the same ratios. The next day, for each tracer, four 20× screening solutions in tracer dilution buffer (Promega) were prepared: two duplicates at final concentration of 20 μM and two duplicates at a final concentration of 2 μM. A competing unmodified compound was added to one of each duplicate at a final concentration of 400 μM. The four resulting solutions were diluted 4-fold in Opti-MEM without serum or phenol red to generate 5× solutions (5 µM and 0.5 µM tracer +/− 100 μM competing compound). To screen the library, a BioTek MultiFlo FX liquid dispenser was used to dispense 22.5 µL of tracer solution to the top 4 rows and 22.5 µL tracer + competing compound solution to the 4 bottom rows. Plates were briefly mixed on an orbital shaker and incubated for 1.5 h at room temperature. […]

Assay [2] addresses T2, LGR4 (Homo sapiens, UniProt Q9BXB1).
T2 construct: purchased Promega (in-house HiBiT-GPCR construct library, NanoBRET)
T2 sequence (Q9BXB1 25-951): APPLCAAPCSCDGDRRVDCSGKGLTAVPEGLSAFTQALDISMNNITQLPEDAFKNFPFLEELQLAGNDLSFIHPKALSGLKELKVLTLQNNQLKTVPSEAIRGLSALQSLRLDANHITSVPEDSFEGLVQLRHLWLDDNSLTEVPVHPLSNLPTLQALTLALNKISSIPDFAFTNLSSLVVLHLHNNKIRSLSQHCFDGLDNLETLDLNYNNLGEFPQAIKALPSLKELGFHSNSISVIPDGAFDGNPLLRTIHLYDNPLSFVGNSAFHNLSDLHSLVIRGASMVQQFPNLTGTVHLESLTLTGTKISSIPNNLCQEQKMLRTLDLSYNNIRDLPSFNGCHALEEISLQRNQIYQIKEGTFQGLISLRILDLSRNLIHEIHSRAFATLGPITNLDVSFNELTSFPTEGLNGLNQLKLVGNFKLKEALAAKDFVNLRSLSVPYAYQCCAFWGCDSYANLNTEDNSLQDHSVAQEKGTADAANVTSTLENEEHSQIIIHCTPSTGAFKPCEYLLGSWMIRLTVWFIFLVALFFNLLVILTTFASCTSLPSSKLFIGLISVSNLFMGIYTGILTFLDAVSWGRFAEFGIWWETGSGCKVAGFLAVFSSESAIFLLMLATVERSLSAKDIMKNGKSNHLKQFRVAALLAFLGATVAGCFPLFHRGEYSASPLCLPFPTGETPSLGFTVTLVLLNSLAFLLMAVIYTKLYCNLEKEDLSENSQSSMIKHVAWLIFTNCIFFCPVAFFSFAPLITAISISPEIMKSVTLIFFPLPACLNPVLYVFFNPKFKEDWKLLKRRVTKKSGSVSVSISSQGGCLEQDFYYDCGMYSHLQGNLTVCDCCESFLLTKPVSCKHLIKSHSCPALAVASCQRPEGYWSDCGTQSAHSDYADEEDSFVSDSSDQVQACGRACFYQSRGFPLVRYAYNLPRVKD
As to the kind of experiment: NanoBRET screen HiBiT-LGR4 in HEK293. It is filed as binding. As for the experimental part:
as §1, §2

As for `COc1ccccc1N1CCN(CCCCN2C(=O)c3ccc(CNC(=O)CCOCCNC(=O)c4ccc(CNC(=O)CCc5ccc6n5[B-](F)(F)[N+]5=C(c7ccc[nH]7)C=CC5=C6)cc4)cc3C2=O)CC1` [NAN-190-3-NB590], the “NanoBRET Fold Response” value in assay [1] (FZD9, tracer 0.1μM) came out at 0.94; in assay [1] (FZD9, tracer 1μM), 1.18; in assay [2] (LGR4, tracer 0.1μM), 0.88; in assay [2] (LGR4, tracer 1μM) it was 0.95.
The like results for `N#CN=C(NCCCOc1cccc(CN2CCCCC2)c1)NCCNC(=O)CCOCCOCCOCCOCCNC(=O)CCc1ccc2n1[B-](F)(F)[N+]1=C(c3ccc[nH]3)C=CC1=C2` [Aminopotentidine-2-NB590] were, in that order, 1.08, 1.01, 1.01 and 1.02.
For the molecule `CN(C)CCC=C1c2ccccc2CCc2ccc(C(=O)NCCNC(=O)CCOCCOCCOCCOCCNC(=O)CCc3ccc4n3[B-](F)(F)[N+]3=C(c5ccc[nH]5)C=CC3=C4)cc21` [Amitriptyline-b-2-NB590], the “NanoBRET Fold Response” value turned out to be 1.04 in assay [1] (tracer at 0.1μM, listed as amitriptyline-b-2-NB590); 1.11 in assay [1] (tracer at 1μM, listed as amitriptyline-b-2-NB590); 1.00 in assay [2] (tracer at 0.1μM); 0.98 in assay [2] (tracer at 1μM).
Take `COc1ccccc1N1CCN(CCCCN2C(=O)c3ccc(CNC(=O)CCOCCOCCOCCOCCNC(=O)CCc4ccc5n4[B-](F)(F)[N+]4=C(c6ccc[nH]6)C=CC4=C5)cc3C2=O)CC1` [NAN-190-2-NB590]: the “NanoBRET Fold Response” value came out at 0.96 in assay [1] (FZD9, tracer 0.1μM); 1.06 in assay [1] (FZD9, tracer 1μM); 1.09 in assay [2] (LGR4, tracer 0.1μM); 0.99 in assay [2] (LGR4, tracer 1μM).
Regarding `O=C(CCOCCOCCOCCOCCNC(=O)CCc1ccc2n1[B-](F)(F)[N+]1=C(c3ccc[nH]3)C=CC1=C2)NCCCN1CCN(C2=Nc3ccccc3Oc3ccc(Cl)cc32)CC1` [Loxapine-a-2-NB590], the “NanoBRET Fold Response” value in assay [1] (FZD9, tracer 0.1μM) amounted to 1.00; in assay [1] (FZD9, tracer 1μM), 1.07; in assay [2] (LGR4, tracer 0.1μM), 0.97; in assay [2] (LGR4, tracer 1μM), 1.04.
The like results for `CCCn1c(=O)c2[nH]c(-c3ccc(OCC(=O)NCCNC(=O)CCOCCNC(=O)c4ccc(CNC(=O)CCc5ccc6n5[B-](F)(F)[N+]5=C(c7ccc[nH]7)C=CC5=C6)cc4)cc3)nc2n(CCC)c1=O` [XAC-3-NB590] were, in that order, 1.00, 1.07, 1.02 and 0.99.
As for `CCOC(=O)c1cc(C#N)c(N2CCC(C(=O)NS(=O)(=O)Cc3ccccc3/C=C/C(=O)NCCNC(=O)CCc3ccc4n3[B-](F)(F)[N+]3=C(c5ccc[nH]5)C=CC3=C4)CC2)nc1C` [AZD1283-1-NB590], the “NanoBRET Fold Response” value in assay [1] (FZD9, 0.1μM) was determined as 1.05; in assay [1] (FZD9, 1μM), 1.02; in assay [2] (LGR4, 0.1μM), 1.01; in assay [2] (LGR4, 1μM) it was 0.97.
